The record followed here is patent publication US20080280891A1, “Anti-cancer agents and uses thereof” (Locus Pharmaceuticals, Inc., priority 2006, published 2008).

The structures appear in SMILES notation.

In assay [1] the test system is MCF-7 breast cancer cells. Put plainly: Cell cycle assay (Example 164), G2/M block in MCF-7 cells. The format is cell-based. The following applies: 24 h, flow cytometry (PI); for activation at 0.1 µM: Homo sapiens, MCF7, Table 4; for MCF-7 G2/M Block 1 μM: Table 3. As for the experimental part:
(§1) The adherent MCF-7 breast cancer cells and NCI-H522 non small cell lung cancer cells were grown and maintained in EMEM cell culture media containing 10% fetal calf serum.
(§2) Cells were allowed to adhere for 24 hrs. After adherence, cell culture media was changed to that containing 0.5% FCS. Thirty minutes post-media change, test compounds were added at a concentration of either 1.0 or 0.1 μM (as specified in the Tables). Twenty-four hours after test agent addition, cells were analyzed for cell cycle status as described below.
(§3) Cell cycle status was analyzed by flow cytometry. Briefly, cells were collected and washed with FACs buffer (Pharmingen) and resuspended and fixed in 1 mL of 80% ethanol for 1 hr. Cells were washed with FACs buffer and resuspended in propidium iodide(PI)/RNase staining buffer (Pharmingen). PI is a fluorescent dye that labels nucleic acids such as DNA. The fluorescence within a cell (in the presence of PI) is proportional to the amount of DNA within a cell. The cell content of DNA is an indicator of status in the cell cycle. […] Cells in the S phase have DNA content that lies between these extremes.
(§4) For testing of cell cycle effects of test agents the percentage of cells within the G1 and G2/M phase were measured.
In general terms: In flow cytometry, cells or beads pass a laser one at a time.

The test system of assay [2] is NCI-H522 non small cell lung cancer cells. As to the kind of experiment: Cell cycle assay (Example 164), G2/M block in NCI-H522 cells. The class given is cell-based. The following applies: Homo sapiens; for activation at 0.1 µM: 24 h, flow cytometry (PI). The method, then: as §1, §2, §3, §4

With `O=C(CO)Nc1cc(C(=O)c2ccnc(N3CCOCC3)c2)cc(-c2cccc3[nH]ccc23)c1` [2-Hydroxy-N-[3-(1H-indol-4-yl)-5-(2-morpholin-4-yl-pyridine-4-carbonyl)-phenyl]-acetamide], the activation at 0.1 µM in assay [1] and in assay [2] (Table 4) was ≥ 50% each time. Consider `COc1cc(C(=O)c2cc(C(N)=O)cc(-c3cccc4[nH]ccc34)c2)ccn1` [3-(1H-Indol-4-yl)-5-(2-methoxy-pyridine-4-carbonyl)-benzamide], for which the activation at 0.1 µM in assay [1] and in assay [2] (Table 4) was ≥ 50% throughout.

Take `Nc1nccc(-c2cc(O)cc(-c3cccc4[nH]ccc34)c2)n1` [3-(2-Amino-pyrimidin-4-yl)-5-(1H-indol-4-yl)-phenol]: the activation at 0.1 µM in assay [1] was < 50%; in assay [2] (Table 4), ≥ 50%. For `CN(C)c1ncccc1Nc1cc(O)cc(-c2cccc3[nH]ccc23)c1` [3-(2-Dimethylamino-pyridin-3-ylamino)-5-(1H-indol-4-yl)-phenol], the “MCF-7 G2/M Block 1 μM” value in assay [1] is given as “Y (Y indicates a 50% or greater increase in the number of cells in the G2/M phase, as compared to control)”. Also, in assay [2] (Table 3), the activation at 0.1 µM is ≥ 50%. Take `CCc1ncccc1Nc1cc(O)cc(-c2cccc3[nH]ccc23)c1` [3-(2-Ethyl-pyridin-3-ylamino)-5-(1H-indol-4-yl)-phenol]: the “MCF-7 G2/M Block 1 μM” value in assay [1] is “Y (Y indicates a 50% or greater increase in the number of cells in the G2/M phase, as compared to control)”. The activation at 0.1 µM in assay [2] (Table 3) is ≥ 50%.

As for `Nc1nccc(-c2cc(Br)cc(-c3cccc4[nH]ccc34)c2)n1` [4-[3-Bromo-5-(1H-indol-4-yl)-phenyl]-pyrimidin-2-ylamine], the activation at 0.1 µM in assay [1] and in assay [2] (Table 4) was ≥ 50% throughout. For the compound `N#Cc1ccc(Nc2cc(O)cc(-c3cccc4[nH]ccc34)c2)cc1` [4-[3-Hydroxy-5-(1H-indol-4-yl)-phenylamino]-benzonitrile], the “MCF-7 G2/M Block 1 μM” value in assay [1] is “N (N indicates a less than 50% increase at this dose)”. Also, in assay [2] (Table 3), the activation at 0.1 µM was ≥ 50%.

Consider `CS(=O)(=O)Nc1cc(-c2cc(C(F)(F)F)ccc2F)cc(-c2cccc3[nH]ccc23)c1` [N-[2′-fluoro-5-(1H-indol-4-yl)-5′-trifluoromethyl-biphenyl-3-yl]-methanesulfonamide], for which the activation at 0.1 µM in assay [1] and in assay [2] (Table 4) was ≥ 50% in each case. Regarding `COc1cc(C(=O)c2cc(NS(C)(=O)=O)cc(-c3cccc4[nH]ccc34)c2)cc(C)n1` [N-[3-(1H-Indol-4-yl)-5-(2-methoxy-6-methyl-pyridine-4-carbonyl)-phenyl]-methanesulfonamide], the activation at 0.1 µM in assay [1] and in assay [2] (Table 4) was ≥ 50% each time. `COc1cc(C(=O)c2cc(NS(C)(=O)=O)cc(-c3cccc4[nH]ccc34)c2)ccn1` [N-[3-(1H-Indol-4-yl)-5-(2-methoxy-pyridine-4-carbonyl)-phenyl]-methanesulfonamide]: the “MCF-7 G2/M Block 1 μM” value in assay [1] is listed as “Y (Y indicates a 50% or greater increase in the number of cells in the G2/M phase, as compared to control)”. Also, the activation at 0.1 µM in assay [2] (Table 3) is ≥ 50%. Take `CC(=O)Nc1cc(C(=O)c2cc(C)nc(N3CCOCC3)c2)cc(-c2cccc3[nH]ccc23)c1` [N-[3-(1H-Indol-4-yl)-5-(2-methyl-6-morpholin-4-yl-pyridine-4-carbonyl)-phenyl]-acetamide]: the activation at 0.1 µM in assay [1] and in assay [2] (Table 4) was ≥ 50% each time.

Regarding `Cc1cc(C(=O)c2cc(NS(C)(=O)=O)cc(-c3cccc4[nH]ccc34)c2)cc(N2CCOCC2)n1` [N-[3-(1H-Indol-4-yl)-5-(2-methyl-6-morpholin-4-yl-pyridine-4-carbonyl)-phenyl]-methanesulfonamide], the activation at 0.1 µM in assay [1] and in assay [2] (Table 4) was ≥ 50% in each case.

Take `CC(=O)Nc1cc(C(=O)c2ccnc(N3CCOCC3)c2)cc(-c2cccc3[nH]ccc23)c1` [N-[3-(1H-Indol-4-yl)-5-(2-morpholin-4-yl-pyridine-4-carbonyl)-phenyl]-acetamide]: the activation at 0.1 µM in assay [1] and in assay [2] (Table 4) was ≥ 50% in each case.

For the compound `CS(=O)(=O)Nc1cc(C(=O)c2ccnc(N3CCOCC3)c2)cc(-c2cccc3[nH]ccc23)c1` [N-[3-(1H-Indol-4-yl)-5-(2-morpholin-4-yl-pyridine-4-carbonyl)-phenyl]-methanesulfonamide], the activation at 0.1 µM in assay [1] and in assay [2] (Table 4) was ≥ 50% throughout. For the compound `CS(=O)(=O)Nc1cc(C(=O)c2ccnc(N3CCSCC3)c2)cc(-c2cccc3[nH]ccc23)c1` [N-[3-(1H-Indol-4-yl)-5-(2-thiomorpholin-4-yl-pyridine-4-carbonyl)-phenyl]-methanesulfonamide], the activation at 0.1 µM in assay [1] and in assay [2] (Table 4) was ≥ 50% throughout.

In the case of `CS(=O)(=O)Nc1cc(C(=O)c2ccnc(N3CCCCC3)c2)cc(-c2cccc3[nH]ccc23)c1` [N-[3-(1H-Indol-4-yl)-5-(3,4,5,6-tetrahydro-2H-[1,2′]bipyridinyl-4′-carbonyl)-phenyl]-methanesulfonamide], the figures for the activation at 0.1 µM in assay [1] and in assay [2] (Table 4) were < 50% and ≥ 50%, respectively. The like results for `COc1ccc(-c2cc(NC(C)=O)cc(-c3cccc4[nH]ccc34)c2)cn1` [N-[3-(1H-Indol-4-yl)-5-(6-methoxy-pyridin-3-yl)-phenyl]-acetamide] were, in that order, ≥ 50% and ≥ 50%. Regarding `COc1ccc(-c2cc(NS(C)(=O)=O)cc(-c3cccc4[nH]ccc34)c2)cn1` [N-[3-(1H-Indol-4-yl)-5-(6-methoxy-pyridin-3-yl)-phenyl]-methanesulfonamide], the activation at 0.1 µM in assay [1] and in assay [2] (Table 4) was ≥ 50% each time. In the case of `CC(=O)Nc1cc(-c2cccnc2)cc(-c2cccc3[nH]ccc23)c1` [N-[3-(1H-Indol-4-yl)-5-pyridin-3-yl-phenyl]-acetamide], the activation at 0.1 µM in assay [1] and in assay [2] (Table 4) was ≥ 50% throughout. As for `CC(=O)Nc1cc(-c2ccncc2)cc(-c2cccc3[nH]ccc23)c1` [N-[3-(1H-Indol-4-yl)-5-pyridin-4-yl-phenyl]-acetamide], the activation at 0.1 µM in assay [1] and in assay [2] (Table 4) was ≥ 50% each time. In the case of `CS(=O)(=O)Nc1cc(-c2ccnc(N)n2)cc(-c2cccc3[nH]ccc23)c1` [N-[3-(2-Amino-pyrimidin-4-yl)-5-(1H-indol-4-yl)-phenyl]-methanesulfonamide], the activation at 0.1 µM in assay [1] and in assay [2] (Table 4) was ≥ 50% each time. Turning to `CC(=O)Nc1cc(-c2ccnc(Cl)c2)cc(-c2cccc3[nH]ccc23)c1` [N-[3-(2-Chloro-pyridin-4-yl)-5-(1H-indol-4-yl)-phenyl]-acetamide], the activation at 0.1 µM in assay [2] (Table 4) was ≥ 50%.

In the case of `CS(=O)(=O)Nc1cc(-c2ccnc(Cl)c2)cc(-c2cccc3[nH]ccc23)c1` [N-[3-(2-Chloro-pyridin-4-yl)-5-(1H-indol-4-yl)-phenyl]-methanesulfonamide], the activation at 0.1 µM in assay [1] and in assay [2] (Table 4) was ≥ 50% throughout. Consider `CC(=O)Nc1cc(C(=O)c2cc(C)nc(N(C)C)c2)cc(-c2cccc3[nH]ccc23)c1` [N-[3-(2-Dimethylamino-6-methyl-pyridine-4-carbonyl)-5-(1H-indol-4-yl)-phenyl]-acetamide], for which the activation at 0.1 µM in assay [1] and in assay [2] (Table 4) was ≥ 50% throughout. For `Cc1cc(C(=O)c2cc(NS(C)(=O)=O)cc(-c3cccc4[nH]ccc34)c2)cc(N(C)C)n1` [N-[3-(2-Dimethylamino-6-methyl-pyridine-4-carbonyl)-5-(1H-indol-4-yl)-phenyl]-methanesulfonamide], the activation at 0.1 µM in assay [1] and in assay [2] (Table 4) was ≥ 50% each time.

Consider `CC(=O)Nc1cc(C(=O)c2ccnc(N(C)C)c2)cc(-c2cccc3[nH]ccc23)c1` [N-[3-(2-Dimethylamino-pyridine-4-carbonyl)-5-(1H-indol-4-yl)-phenyl]-acetamide], for which the activation at 0.1 µM in assay [1] and in assay [2] (Table 4) was ≥ 50% each time. `CN(C)c1cc(C(=O)c2cc(NS(C)(=O)=O)cc(-c3cccc4[nH]ccc34)c2)ccn1` [N-[3-(2-Dimethylamino-pyridine-4-carbonyl)-5-(1H-indol-4-yl)-phenyl]-methanesulfonamide]: the activation at 0.1 µM in assay [1] and in assay [2] (Table 4) was ≥ 50% each time. As for `CC(=O)Nc1cc(-c2ccc(Cl)nc2)cc(-c2cccc3[nH]ccc23)c1` [N-[3-(6-Chloro-pyridin-3-yl)-5-(1H-indol-4-yl)-phenyl]-acetamide], the activation at 0.1 µM in assay [2] (Table 4) is ≥ 50%. As for `CCOc1ccc(-c2cc(NC(C)=O)cc(-c3cccc4[nH]ccc34)c2)cn1` [N-[3-(6-Ethoxy-pyridin-3-yl)-5-(1H-indol-4-yl)-phenyl]-acetamide], in assay [2] (Table 4), the activation at 0.1 µM is < 50%. Further, in assay [2] (H522, footnotes * and ** of Table 4, read-out: IC50 (footnote mark in H522 G2/M Block)), the IC50 was in the range of 100 to 1000 nM. Take `CS(=O)(=O)Nc1cc(-c2nc3ccccc3o2)cc(-c2cccc3[nH]ccc23)c1` [N-[3-Benzoxazol-2-yl-5-(1H-indol-4-yl)-phenyl]-methanesulfonamide]: the activation at 0.1 µM in assay [1] and in assay [2] (Table 4) was ≥ 50% throughout.

As for `CS(=O)(=O)Nc1cc(-c2ccc3c(c2)OCO3)cc(-c2cccc3[nH]ccc23)c1` [N-[3-benzo[1,3]dioxol-5-yl-5-(1H-indol-4-yl)-phenyl]-methanesulfonamide], the activation at 0.1 µM in assay [1] and in assay [2] (Table 4) was ≥ 50% throughout.
